Here are results for two compounds from paper PMC4013357 (The Journal of Veterinary Medical Science, 2013).

The experiment has as its target T1, rBboDHODH (Babesia bovis dihydroorotate dehydrogenase) (Babesia bovis, UniProt A7AUQ8).
T1 sequence (A7AUQ8 1-415): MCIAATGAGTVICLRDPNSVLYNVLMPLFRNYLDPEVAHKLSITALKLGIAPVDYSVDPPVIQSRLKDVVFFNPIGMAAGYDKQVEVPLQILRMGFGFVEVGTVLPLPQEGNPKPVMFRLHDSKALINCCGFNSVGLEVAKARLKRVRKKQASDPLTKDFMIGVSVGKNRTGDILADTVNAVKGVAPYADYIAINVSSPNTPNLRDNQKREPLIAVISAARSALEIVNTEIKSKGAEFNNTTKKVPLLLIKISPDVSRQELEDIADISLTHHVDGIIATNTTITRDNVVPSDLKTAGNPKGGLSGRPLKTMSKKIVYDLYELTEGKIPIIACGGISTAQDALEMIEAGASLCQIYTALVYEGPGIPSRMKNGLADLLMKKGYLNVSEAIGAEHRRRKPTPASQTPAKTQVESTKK
Nature of the experiment: biochemical. The following applies: read-out: Relative activity (%).

For `O=C1C(O)=C([C@H]2CC[C@H](c3ccc(Cl)cc3)CC2)C(=O)c2ccccc21` [ATV, atovaquone], the activity at 1 µM amounted to 19.1%.
On to `Cc1oncc1C(=O)Nc1ccc(C(F)(F)F)cc1` [LFN, leflunomide], for which the activity at 1000 µM was 51.6%.
